We go through 2 compounds from patent US5359063A, “Heterocyclene derivatives” (Imperial Chemical Industries PLC, priority 1990, dated 1994).

In experiment [1] the test system is 5-LO. Put plainly: Test b) LTB4 in heparinised human blood challenged with calcium ionophore A23187 (radioimmunoassay). Format: cell-based. How it is done: b) An in vitro assay system involving incubating a test compound with heparinised human blood, prior to challenge with the calcium ionophore A23187 and then indirectly measuring the inhibitory effects on 5-LO by assaying the amount of LTB4 using specific radioimmunoassays described by Carey and Forder (F. Carey and R. A. Forder, Prostaglandins, Leukotrienes Med., 1986, 22, 57; Prostaglandins, 1984, 28, 666; Brit. J. Pharmacol. 1985, 84, 34P) which involve the use of a protein-LTB4 conjugate produced using the procedure of Young et alia (Prostaglandins, 1983, 26(4), 605-613). The effects of a test compound on the enzyme cyclooxygenase (which is involved in the alternative metabolic pathway for arachidonic acid and gives rise to prostaglandins, thromboxanes and related metabolites) may be measured at the same time using the specific radioimmunoassay for thromboxane B2 (TxB2) described by Carey and Forder (see above). This test provides an indication of the effects of a test compound against 5-LO and also cyclooxygenase in the presence of blood cells and proteins. It permits the selectivity of the inhibitory effect on 5-LO or cyclooxygenase to be assessed.

Experiment [2] concerns 5-LO. Nature of the experiment: Test g) LTB4 liberation induced by zymosan within an air pouch in male rats. The class given is in vivo. To be noted: 3 h; test g), rat air pouch, oral. How it is done: g) An in vivo system involving measuring the effects of a test compound administered orally against the liberation of LTB4 induced by zymosan within an air pouch generated within the subcutaneous tissue of the back of male rats. The rats are anaesthetised and air pouches are formed by the injection of sterile air (20 ml). A further injection of air (10 ml) is similarIv given after 3 days. At 6 days after the initial air injection the test compound is administered (usually orally as the suspension produced when a solution of the test compound in dimethylsulphoxide is added to hydroxypropylmethylcellulose), followed by the intrapouch injection of zymosan (1 ml of a 1% suspension in physiological saline). After 3 hours the rats are killed, the air pouches are lavaged with physiological saline, and the specific radioimmunoassay described above is used to assay LTB4 in the washings. This test provides an indication of inhibitory effects against 5-LO in an inflammatory milieu.

Molecules are shown by their SMILES. Bounds are passed on as bounds.

As for `COC1(c2ccc(Sc3ccc(C(C)(C)C)cc3)s2)CCOCC1` [4-[5-(4-tert-butylphenylthio)thien-2-yl]-4-methoxytetrahydropyran], the half-maximal inhibitory concentration (IC50) with 5-LO [1] amounted to 150 nM. In addition, the ED50 in the experiment with 5-LO [2] was determined as 1.5 mg/kg.
In the case of `COC1(c2ccc(Sc3ccc4c(c3)CCC(=O)N4C)s2)CCOCC1` [4-methoxy-4-[5-(1-methyl-2-oxo-1,2,3,4-tetrahydroquinolin-6-ylthio)thien-2-yl]tetrahydropyran], in the experiment with 5-LO [1], the IC50 was 40 nM. Moreover, the ED50 in the experiment on 5-LO [2] was under 1.5 mg/kg.
